{"source": "patent US10550111B2", "about": "“Pyrimidine urea compound containing isoxazolines and use thereof” (SHENYANG SINOCHEM AGROCHEMICALS R&D CO., LTD, priority 2014, dated 2020)", "format_in_all_cases": "in vivo", "key": {"[1]": {"system": "broad-leaf weeds and grass weeds", "experiment": "General screening of herbicidal activity in greenhouse;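 note: 0 means no visible effect and 100 means all weeds dead or not emerged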", "conditions": "1000 g a.i./hm^2", "outline": "(§1)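 Plants were raised from seed under greenhouse conditions and treated with emulsifiable-concentrate compounds by track sprayer, either 24 hours after sowing or post-emergence at the 2- to 3-leaf (grass) or 2- to 4-leaf (broad-leaf) stage. Damage was assessed visually as percent growth inhibition.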"}, "[2]": {"system": "Echinochloa crus-galli (L.) Beauv.", "experiment": "Bioassay of herbicidal activity in greenhouse (further screening)", "outline": "as §1"}, "[3]": {"system": "Setaria glauca (L.) Beauv.", "experiment": "Bioassay of herbicidal activity in greenhouse (further screening)", "outline": "as §1"}, "Zinnia elegans Jacq.": {"system": "Zinnia elegans Jacq.", "experiment": "Bioassay of herbicidal activity in greenhouse (further screening)", "outline": "as §1"}, "[4]": {"system": "Abutilon theophrasti Medic.", "experiment": "Bioassay of herbicidal activity in greenhouse (further screening)", "outline": "as §1"}}}
{"compound": "Cn1c(C(F)(F)F)cc(=O)n(-c2cc(C3=NOC(C)(C(=O)OCC4CCCO4)C3)c(Cl)cc2F)c1=O", "note": "(stereo not shown) [Compound 398]", "values": [{"measurement": "pre-emergence and post-emergence herbicidal activity against broad-leaf weeds and grass weeds", "setting": "[1]", "value": "good"}, {"measurement": "Growth inhibition rate, Post-emergence treatment, Echinochloa crus-galli (L.) Beauv.", "setting": "[2]; dose 7.5 g a.i./hm^2", "value": 65, "unit": "%"}, {"measurement": "Growth inhibition rate, Post-emergence treatment, Echinochloa crus-galli (L.) Beauv.", "setting": "[2]; dose 15 g a.i./hm^2", "value": 75, "unit": "%"}, {"measurement": "Growth inhibition rate, Post-emergence treatment, Echinochloa crus-galli (L.) Beauv.", "setting": "[2]; dose 30.0 g a.i./hm^2", "value": 95, "unit": "%"}, {"measurement": "Growth inhibition rate, Post-emergence treatment, Echinochloa crus-galli (L.) Beauv.", "setting": "[2]; dose 60.0 g a.i./hm^2", "value": 100, "unit": "%"}, {"measurement": "Growth inhibition rate, Post-emergence treatment, Echinochloa crus-galli (L.) Beauv.", "setting": "[2]; dose 120.0 g a.i./hm^2", "value": 100, "unit": "%"}, {"measurement": "Growth inhibition rate, Post-emergence treatment, Setaria glauca (L.) Beauv.", "setting": "[3]; dose 7.5 g a.i./hm^2", "value": 55, "unit": "%"}, {"measurement": "Growth inhibition rate, Post-emergence treatment, Setaria glauca (L.) Beauv.", "setting": "[3]; dose 15 g a.i./hm^2", "value": 95, "unit": "%"}, {"measurement": "Growth inhibition rate, Post-emergence treatment, Setaria glauca (L.) Beauv.", "setting": "[3]; dose 30.0 g a.i./hm^2", "value": 100, "unit": "%"}, {"measurement": "Growth inhibition rate, Post-emergence treatment, Setaria glauca (L.) Beauv.", "setting": "[3]; dose 60.0 g a.i./hm^2", "value": 100, "unit": "%"}, {"measurement": "Growth inhibition rate, Post-emergence treatment, Setaria glauca (L.) Beauv.", "setting": "[3]; dose 120.0 g a.i./hm^2", "value": 100, "unit": "%"}, {"measurement": "Growth inhibition rate, Post-emergence treatment, Zinnia elegans Jacq.", "setting": "Zinnia elegans Jacq.; dose 7.5 g a.i./hm^2", "value": 65, "unit": "%"}, {"measurement": "Growth inhibition rate, Post-emergence treatment, Zinnia elegans Jacq.", "setting": "Zinnia elegans Jacq.; dose 15 g a.i./hm^2", "value": 90, "unit": "%"}, {"measurement": "Growth inhibition rate, Post-emergence treatment, Zinnia elegans Jacq.", "setting": "Zinnia elegans Jacq.; dose 30.0 g a.i./hm^2", "value": 100, "unit": "%"}, {"measurement": "Growth inhibition rate, Post-emergence treatment, Zinnia elegans Jacq.", "setting": "Zinnia elegans Jacq.; dose 60.0 g a.i./hm^2", "value": 100, "unit": "%"}, {"measurement": "Growth inhibition rate, Post-emergence treatment, Zinnia elegans Jacq.", "setting": "Zinnia elegans Jacq.; dose 120.0 g a.i./hm^2", "value": 100, "unit": "%"}, {"measurement": "Growth inhibition rate, Post-emergence treatment, Abutilon theophrasti Medic.", "setting": "[4]; dose 7.5 g a.i./hm^2", "value": 98, "unit": "%"}, {"measurement": "Growth inhibition rate, Post-emergence treatment, Abutilon theophrasti Medic.", "setting": "[4]; dose 15 g a.i./hm^2", "value": 98, "unit": "%"}, {"measurement": "Growth inhibition rate, Post-emergence treatment, Abutilon theophrasti Medic.", "setting": "[4]; dose 30.0 g a.i./hm^2", "value": 100, "unit": "%"}, {"measurement": "Growth inhibition rate, Post-emergence treatment, Abutilon theophrasti Medic.", "setting": "[4]; dose 60.0 g a.i./hm^2", "value": 100, "unit": "%"}, {"measurement": "Growth inhibition rate, Post-emergence treatment, Abutilon theophrasti Medic.", "setting": "[4]; dose 120.0 g a.i./hm^2", "value": 100, "unit": "%"}]}
{"compound": "CCCS(=O)(=O)OCC1(C)CC(c2cc(-n3c(=O)cc(C(F)(F)F)n(C)c3=O)c(F)cc2Cl)=NO1", "note": "(stereo not shown) [Compound 90]", "values": [{"measurement": "pre-emergence and post-emergence herbicidal activity against broad-leaf weeds and grass weeds", "setting": "[1]", "value": "good"}, {"measurement": "Growth inhibition rate, Post-emergence treatment, Echinochloa crus-galli (L.) Beauv.", "setting": "[2]; dose 37.5 g a.i./hm^2", "value": 15, "unit": "%"}, {"measurement": "Growth inhibition rate, Post-emergence treatment, Echinochloa crus-galli (L.) Beauv.", "setting": "[2]; dose 150 g a.i./hm^2", "value": 35, "unit": "%"}, {"measurement": "Growth inhibition rate, Post-emergence treatment, Echinochloa crus-galli (L.) Beauv.", "setting": "[2]; dose 600 g a.i./hm^2", "value": 40, "unit": "%"}, {"measurement": "Growth inhibition rate, Pre-emergence treatment, Echinochloa crus-galli (L.) Beauv.", "setting": "[2]; dose 37.5 g a.i./hm^2", "value": 0, "unit": "%"}, {"measurement": "Growth inhibition rate, Pre-emergence treatment, Echinochloa crus-galli (L.) Beauv.", "setting": "[2]; dose 150 g a.i./hm^2", "value": 10, "unit": "%"}, {"measurement": "Growth inhibition rate, Pre-emergence treatment, Echinochloa crus-galli (L.) Beauv.", "setting": "[2]; dose 600 g a.i./hm^2", "value": 25, "unit": "%"}, {"measurement": "Growth inhibition rate, Post-emergence treatment, Setaria glauca (L.) Beauv.", "setting": "[3]; dose 37.5 g a.i./hm^2", "value": 25, "unit": "%"}, {"measurement": "Growth inhibition rate, Post-emergence treatment, Setaria glauca (L.) Beauv.", "setting": "[3]; dose 150 g a.i./hm^2", "value": 60, "unit": "%"}, {"measurement": "Growth inhibition rate, Post-emergence treatment, Setaria glauca (L.) Beauv.", "setting": "[3]; dose 600 g a.i./hm^2", "value": 80, "unit": "%"}, {"measurement": "Growth inhibition rate, Pre-emergence treatment, Setaria glauca (L.) Beauv.", "setting": "[3]; dose 37.5 g a.i./hm^2", "value": 5, "unit": "%"}, {"measurement": "Growth inhibition rate, Pre-emergence treatment, Setaria glauca (L.) Beauv.", "setting": "[3]; dose 150 g a.i./hm^2", "value": 20, "unit": "%"}, {"measurement": "Growth inhibition rate, Pre-emergence treatment, Setaria glauca (L.) Beauv.", "setting": "[3]; dose 600 g a.i./hm^2", "value": 50, "unit": "%"}, {"measurement": "Growth inhibition rate, Post-emergence treatment, Zinnia elegans Jacq.", "setting": "Zinnia elegans Jacq.; dose 37.5 g a.i./hm^2", "value": 98, "unit": "%"}, {"measurement": "Growth inhibition rate, Post-emergence treatment, Zinnia elegans Jacq.", "setting": "Zinnia elegans Jacq.; dose 150 g a.i./hm^2", "value": 100, "unit": "%"}, {"measurement": "Growth inhibition rate, Post-emergence treatment, Zinnia elegans Jacq.", "setting": "Zinnia elegans Jacq.; dose 600 g a.i./hm^2", "value": 100, "unit": "%"}, {"measurement": "Growth inhibition rate, Pre-emergence treatment, Zinnia elegans Jacq.", "setting": "Zinnia elegans Jacq.; dose 37.5 g a.i./hm^2", "value": 5, "unit": "%"}, {"measurement": "Growth inhibition rate, Pre-emergence treatment, Zinnia elegans Jacq.", "setting": "Zinnia elegans Jacq.; dose 150 g a.i./hm^2", "value": 30, "unit": "%"}, {"measurement": "Growth inhibition rate, Pre-emergence treatment, Zinnia elegans Jacq.", "setting": "Zinnia elegans Jacq.; dose 600 g a.i./hm^2", "value": 80, "unit": "%"}, {"measurement": "Growth inhibition rate, Post-emergence treatment, Abutilon theophrasti Medic.", "setting": "[4]; dose 37.5 g a.i./hm^2", "value": 100, "unit": "%"}, {"measurement": "Growth inhibition rate, Post-emergence treatment, Abutilon theophrasti Medic.", "setting": "[4]; dose 150 g a.i./hm^2", "value": 100, "unit": "%"}, {"measurement": "Growth inhibition rate, Post-emergence treatment, Abutilon theophrasti Medic.", "setting": "[4]; dose 600 g a.i./hm^2", "value": 100, "unit": "%"}, {"measurement": "Growth inhibition rate, Pre-emergence treatment, Abutilon theophrasti Medic.", "setting": "[4]; dose 37.5 g a.i./hm^2", "value": 0, "unit": "%"}, {"measurement": "Growth inhibition rate, Pre-emergence treatment, Abutilon theophrasti Medic.", "setting": "[4]; dose 150 g a.i./hm^2", "value": 10, "unit": "%"}, {"measurement": "Growth inhibition rate, Pre-emergence treatment, Abutilon theophrasti Medic.", "setting": "[4]; dose 600 g a.i./hm^2", "value": 30, "unit": "%"}]}
